# From patent US7572765B2, “Conformationally constrained parathyroid hormone (PTH) analogs” (The General Hospital Corporation, priority 2001, dated 2009)
# Values joined by “and” are separate entries in the source; they are usually repeats but may differ in a detail not shown here. Equal values may be shown once. Read-outs that look alike come from different tables or passages of the source. Square brackets hold non-standard residues; d marks the D form. Peptide text beside a SMILES is read from it. hArg = N=C(N)NCCCC[C@H](N)C(=O)O; Aib = CC(C)(N)C(=O)O
# How the values were obtained:
# human P1R [1] = biological target: T1, human P1R (Homo sapiens, UniProt Q03431); assay: cAMP stimulation in HKRK-B28 cells; assay type: cell-based; details: for cAMP EMax(obs.): basal 4.0 ± 0.1 pmole/well not subtracted
# T1 construct: expressed in transfected cells; host or cells: HKRK-B28 (porcine kidney LLC-PK1, stably transfected)
# T1 sequence (Q03431 27-593): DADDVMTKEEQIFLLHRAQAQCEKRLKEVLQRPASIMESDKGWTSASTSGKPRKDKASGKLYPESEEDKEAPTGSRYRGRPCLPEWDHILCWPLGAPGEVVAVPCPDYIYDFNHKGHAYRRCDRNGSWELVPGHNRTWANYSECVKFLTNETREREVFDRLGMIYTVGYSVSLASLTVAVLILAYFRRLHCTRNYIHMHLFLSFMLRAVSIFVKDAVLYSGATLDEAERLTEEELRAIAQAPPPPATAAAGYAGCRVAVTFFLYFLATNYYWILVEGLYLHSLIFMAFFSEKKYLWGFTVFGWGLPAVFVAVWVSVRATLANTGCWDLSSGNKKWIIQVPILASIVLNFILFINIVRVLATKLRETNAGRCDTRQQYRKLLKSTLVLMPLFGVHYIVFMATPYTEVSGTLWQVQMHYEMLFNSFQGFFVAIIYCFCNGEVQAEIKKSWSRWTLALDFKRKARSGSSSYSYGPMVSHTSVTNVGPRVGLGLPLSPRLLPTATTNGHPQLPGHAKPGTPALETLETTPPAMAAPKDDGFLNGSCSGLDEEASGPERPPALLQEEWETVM
# human P1R [2] = biological target: T1, human P1R; assay: Competition binding in HKRK-B28 cells; details: HKRK-B28 cells; for IC50 / Binding IC50: tracer 125I-[M]PTH(1-21)amide, 4 h at 4° C., N.B. = no binding detected at 10 μm peptide
# Method: Cell Culture. The cell line HKRK-B28 (Takasu, H., et al., J. Bone Miner. Res. 14:11-20 (1999)) was derived from the porcine kidney cell line, LLC-PK1 by stable transfection with plasmid DNA encoding the human P1R and expresses ˜280,000 receptors per cell. These cells, as well as COS-7 cells and SaOS-2-B10 cells, were cultured at […] in T-75 flasks ([…]) in Dulbecco's modified Eagle's medium (DMEM) supplemented with fetal bovine serum (10%), penicillin G (20 units/ml), streptomycin sulfate (20 μg/ml) and amphotericin B (0.05 μg/ml) in a humidified atmosphere containing 5% CO2. Stock solutions of EGTA/trypsin and antibiotics were from GIBCO; fetal bovine serum was from Hyclone Laboratories (Logan, Utah). COS-7 cells sub-cultured in 24-well plates were transfected with plasmid DNA (200 ng per well) encoding the wild-type human P1R or truncated human P1R deleted for residues (24-181) (Shimizu, M., et al., J. Biol. Chem. 275:21836-21843 (2000)) that was purified by cesium chloride/ethidium bromide density gradient centrifugation, and FuGENE 6 transfection reagent (Roche Indianapolis Ind.) according to the manufacturer's recommended procedure. All cells, in 24-well plates, were treated with fresh media and shifted to 33° C. for 12 to 24 h prior to assay.
# Competition Binding. Binding reactions were performed with HKRK-B28 cells or in COS-7 cells in 24-well plates. The cells were rinsed with 0.5 mL of binding buffer, and then treated successively with 100 μL binding buffer, 100 μL of binding buffer containing various amounts of unlabeled competitor ligand, and 100 μL of binding buffer containing ca. 100,000 cpm of ^125I-[M]PTH(1-21) or ^125I-[Aib^1,3,M]PTH(1-21)} (ca. 26 fmol; final volume=300 μL). Incubations were 4 to 6 h at 4° C., at which time near equilibrium conditions were attained. Cells were then placed on ice, the binding medium was removed, and the monolayer was rinsed three times with 0.5 mL of cold binding buffer. The cells were subsequently lysed with 0.5 mL […] and counted for radioactivity. For each tracer and in each experiment, the non-specific binding was determined as the radioactivity that bound in the presence of the same unlabeled peptide at a concentration of 1 μM, and was ˜1% of total radioactivity added for each tracer. The maximum specific binding (B0) was the total radioactivity bound in the absence of competing ligand, corrected for nonspecific binding, and for each tracer, ranged from 8% to 20% of the total radioactivity added. Nonlinear regression was used to calculate binding IC50 values (see below). Scatchard transformations of homologous competition binding data derived from studies with 26 fmol of ^125I-[Aib^1,3,M]PTH(1-21) were employed for estimations of apparent equilibrium dissociation constant (kDapps) and total number of ligand binding sites (Bmax), assuming a single class of binding sites and equal affinities of the iodinated and non iodinated ligand.
# Data Calculation. Calculations were performed using Microsoft® Excel. Nonlinear regression analyses of binding and cAMP dose-response data were performed using the four-parameter equation: yp=Min+[(Max−Min)/(1+(IC50/x)^slope)]. The Excel Solver function was utilized for parameter optimization, as described previously (Carter, P. H., et al., Endocrinology 140: 4972-4981 (1999); Bowen, W. P., and Jerman, J. C., Trends in Pharmacol. Sci. 16: 413-417 (1995)). Differences between paired data sets were statistically evaluated using a one-tailed Student's t-test, assuming unequal variances for the two sets.
# The P1R-binding properties of these analogs were assayed in competition studies performed in […]. In previous studies, PTH(1-14) binding could not be detected using ^125I-PTH(1-34) and related N-terminally intact and relatively unmodified radioligands (Luck, M. D., et al., Molecular Endocrinology 13:670-680 (1999)). […]
EC50 (human P1R [1]),maximum (Emax) increase in intracellular cAMP (human P1R [1]),cAMP EMax(obs.) (human P1R [1]),IC50 (human P1R [2]),Compound,further results
2.5 ± 0.4 nM,~70 fold,280 ± 11 pmole/well,1.8e-08 ± 3e-09 M,"CCCC[C@H](NC(=O)[C@H](CCCNC(=N)N)NC(=O)[C@H](CCC(=O)O)NC(=O)[C@@H](NC(=O)[C@H](CO)NC(=O)[C@H](C)NC(=O)[C@H](CC(C)C)NC(=O)[C@H](Cc1c[nH]cn1)NC(=O)[C@H](CCCCN)NC(=O)CNC(=O)[C@H](CC(C)C)NC(=O)[C@H](CC(N)=O)NC(=O)[C@H](Cc1c[nH]cn1)NC(=O)[C@H](CCCC)NC(=O)[C@H](CC(C)C)NC(=O)[C@H](CCC(N)=O)NC(=O)[C@@H](NC(=O)[C@H](CCC(=O)O)NC(=O)[C@H](CO)NC(=O)[C@@H](NC(=O)[C@H](C)N)C(C)C)[C@@H](C)CC)C(C)C)C(=O)N[C@@H](CCC(N)=O)C(=O)N[C@@H](Cc1c[nH]c2ccccc12)C(=O)N[C@@H](CC(C)C)C(=O)N[C@@H](CCCNC(=N)N)C(=O)N[C@@H](CCCCN)C(=O)N[C@@H](CCCCN)C(=O)N[C@@H](CC(C)C)C(=O)N[C@@H](CCC(N)=O)C(=O)N[C@@H](CC(=O)O)C(=O)N[C@H](C(=O)N[C@@H](Cc1c[nH]cn1)C(=O)N[C@@H](CC(N)=O)C(=O)N[C@@H](Cc1ccc(O)cc1)C(N)=O)C(C)C [PTH(1-34), [Nle^8,21, Tyr^34]PTH(1-34)amide, reference compound]",–
16000 ± 2000 nM,–,111 ± 8 pmole/well,–,"CC[C@H](C)[C@H](NC(=O)[C@H](CCC(=O)O)NC(=O)C(C)(C)NC(=O)[C@@H](NC(=O)C(C)(C)N)C(C)C)C(=O)N[C@@H](CCC(N)=O)C(=O)N[C@@H](CC(C)C)C(=O)N[C@@H](CCSC)C(=O)N[C@@H](Cc1c[nH]cn1)C(=O)N[C@@H](CCC(N)=O)C(N)=O [[Aib^1,3,M]PTH(1-10), [Aib^1,3,Gln^10]PTH(1-10)] (H-[Aib]V[Aib]EIQLMHQ-NH2)","cAMP potency, fold more potent than [Ala^3,Gln^10]PTH(1-10) (human P1R [1]): 50 fold; cAMP potency, fold weaker relative to [Aib^1,3,M]PTH(1-11) (human P1R [1]): 4000 fold; Binding IC50 (human P1R [2]): did not bind detachably; Binding IC50 (human P1R [2]; M]PTH (1-10)): N.B."
4 nM and ~6 nM,–,243 ± 15 pmole/well,9.7e-07 ± 3e-07 M,"CC[C@H](C)[C@H](NC(=O)[C@H](CCC(=O)O)NC(=O)C(C)(C)NC(=O)[C@@H](NC(=O)C(C)(C)N)C(C)C)C(=O)N[C@@H](CCC(N)=O)C(=O)N[C@@H](CC(C)C)C(=O)N[C@@H](CCSC)C(=O)N[C@@H](Cc1c[nH]cn1)C(=O)N[C@@H](CCC(N)=O)C(=O)N[C@@H](CCCCNC(=N)N)C(N)=O [[Aib^1,3,M]PTH(1-11), AibValAibGluIleGlnLeuMetHisGlnHar] (H-[Aib]V[Aib]EIQLMHQ[hArg]-NH2)","cAMP potency, fold greater than that of [M]PTH(1-11) (human P1R [1]): 1,000 fold; cAMP potency, fold greater than that of [M]PTH(1-11) (human P1R [1]; listed as [Aib^1,3,Gln^10,Har^11]PTH(1-11)): 1000 fold"
1.1 nM and ~1 nM,–,278 ± 20 pmole/well,1.3e-07 ± 2e-08 M,"CC[C@H](C)[C@H](NC(=O)[C@H](CCC(=O)O)NC(=O)C(C)(C)NC(=O)[C@@H](NC(=O)C(C)(C)N)C(C)C)C(=O)N[C@@H](CCC(N)=O)C(=O)N[C@@H](CC(C)C)C(=O)N[C@@H](CCSC)C(=O)N[C@@H](Cc1c[nH]cn1)C(=O)N[C@@H](CCC(N)=O)C(=O)N[C@@H](CCCCNC(=N)N)C(=O)N[C@@H](C)C(=O)N[C@@H](CCCCN)C(=O)N[C@@H](Cc1c[nH]c2ccccc12)C(N)=O [[Aib^1,3,M]PTH(1-14), AibValAibGluIleGlnLeuMetHisGlnHarAlaLysTrp] (H-[Aib]V[Aib]EIQLMHQ[hArg]AKW-NH2)","fold more potent in stimulating cAMP formation than [M]PTH(1-14) (human P1R [1]): 90 fold and 100 fold; fold improvement of apparent binding affinity relative to [M]PTH(1-14) (human P1R [2]): 100 fold; fold improvement of apparent binding affinity relative to [M]PTH(1-14) (human P1R [2]; listed as Aib-1,3): approximately 100 fold"
–,~70 fold,270 ± 8 pmole/well,–,"CC[C@H](C)[C@H](NC(=O)[C@H](CCC(=O)O)NC(=O)[C@H](C)NC(=O)[C@@H](NC(=O)[C@H](C)N)C(C)C)C(=O)N[C@@H](CCC(N)=O)C(=O)N[C@@H](CC(C)C)C(=O)N[C@@H](CCSC)C(=O)N[C@@H](Cc1c[nH]cn1)C(=O)N[C@@H](CCC(N)=O)C(=O)N[C@@H](CCCCNC(=N)N)C(=O)N[C@@H](C)C(=O)N[C@@H](CCCCN)C(=O)N[C@@H](Cc1c[nH]c2ccccc12)C(N)=O [[M]PTH(1-14), [Ala^3,12,Gln^10,Har^11,Trp^14]PTH(1-14)amide, reference compound] (H-AVAEIQLMHQ[hArg]AKW-NH2)","cAMP potency (EC50), fold less than that of PTH(1-34) (human P1R [1]): 40 fold"
